Test results: the CheMixHub drug solubility set

Test: xn = mol fraction of the nth substance listed, in the solute-free solvent

COc1cc2c(cc1OC)-c1cc3ccc(OC)c(OC)c3c[n+]1CC2.[Cl-] + CCO + O
solubility (g/100 g solution)
Conditions	283.15 K	288.15 K	293.15 K	298.15 K	303.15 K	308.15 K	313.15 K	318.15 K	323.15 K	328.15 K
x2 = 0.04165	1.22	1.49	1.87	2.33	2.87	3.46	4.17	4.96	5.87	6.89
x2 = 0.08908	1.26	1.54	1.93	2.4	2.94	3.56	4.28	5.08	6.01	7.05
x2 = 0.1436	1.34	1.62	2.03	2.52	3.14	3.77	4.52	5.34	6.28	7.33
x2 = 0.2068	1.44	1.74	2.17	2.68	3.27	3.94	4.73	5.59	6.6	7.72
x2 = 0.2812	1.57	1.89	2.37	2.96	3.58	4.32	5.15	6.02	7.08	8.21
x2 = 0.3698	1.72	2.06	2.54	3.13	3.8	4.55	5.44	6.39	7.51	8.77
x2 = 0.4772	1.88	2.23	2.75	3.38	4.16	5.02	5.95	6.91	8.09	9.31
x2 = 0.6101	2.02	2.39	2.94	3.6	4.33	5.16	6.14	7.16	8.39	9.76
x2 = 0.7788	2.11	2.48	3.08	3.79	4.53	5.41	6.4	7.47	8.65	9.96

CCC(C)n1ncn(-c2ccc(N3CCN(c4ccc(OCC5COC(Cn6cncn6)(c6ccc(Cl)cc6Cl)O5)cc4)CC3)cc2)c1=O (centres undefined) + ClCCl + CO
solubility (g/100 g solution)
Conditions	x2 = 0.04066	x2 = 0.08707	x2 = 0.1405	x2 = 0.2028	x2 = 0.2761	x2 = 0.364	x2 = 0.4709	x2 = 0.6041	x2 = 0.7744
288.15 K	0.122	0.244	0.561	1.46	4.71	10.6	19.3	28	31.4
293.15 K	0.147	0.294	0.696	1.84	5.79	12.5	21.2	29.4	32.6
298.15 K	0.177	0.355	0.855	2.28	6.97	14.5	23.2	30.8	33.9
303.15 K	0.212	0.426	1.04	2.83	8.37	16.8	25.3	32.2	35
308.15 K	0.253	0.508	1.26	3.5	9.95	19.3	27.6	33.6	36.2

CN1CCN(C2=Nc3cc(Cl)ccc3Nc3ccccc32)CC1 + Cc1ccccc1 + CC(C)=O
323.15 K
Conditions	solubility (g/100 g solution)
x2 = 0.06574	13.6
x2 = 0.1358	15.9
x2 = 0.2124	17.4
x2 = 0.2962	17
x2 = 0.3864	17
x2 = 0.4859	16
x2 = 0.5953	14.7
x2 = 0.7159	12.9
x2 = 0.8497	10.3

Nc1cccc(S(=O)(=O)c2cccc(N)c2)c1 + CN(C)C=O + O
solubility (g/100 g solution)
Conditions	283.15 K	288.15 K	293.15 K	298.15 K	303.15 K	308.15 K	313.15 K	318.15 K	323.15 K	328.15 K
x2 = 0.02666	0.202	0.267	0.355	0.463	0.615	0.787	1.01	1.26	1.53	1.97
x2 = 0.05806	0.784	1.03	1.32	1.65	2.08	2.63	3.23	3.98	4.79	5.92
x2 = 0.09556	2.09	2.63	3.21	3.95	4.75	5.77	6.85	8.08	9.45	11
x2 = 0.1412	4.93	5.86	6.87	8.09	9.39	10.8	12.4	14.1	15.9	17.7
x2 = 0.1978	7.85	9.25	10.8	12.5	14.2	16.2	18.4	20.5	22.9	25.4
x2 = 0.27	11.4	13	15	16.9	19.1	21.5	23.9	26.7	29.3	32.1
x2 = 0.3652	14.4	16.6	18.8	21.2	23.6	26.3	29.1	31.9	34.6	37.4
x2 = 0.4965	17.8	20.1	22.5	25.2	27.8	30.7	33.8	36.6	39.7	42.6
x2 = 0.6893	20.8	23.1	25.7	28.2	31.1	33.9	36.5	39.4	42.3	45.4

Nc1nccnc1Cl + CN(C)C=O + O
solubility (g/100 g solution)
Conditions	278.15 K	283.15 K	288.15 K	293.15 K	298.15 K	303.15 K	308.15 K	313.15 K	318.15 K	323.15 K
x2 = 0.02666	0.123	0.162	0.208	0.257	0.308	0.359	0.41	0.469	0.522	0.579
x2 = 0.05806	0.379	0.491	0.623	0.761	0.903	1.04	1.18	1.34	1.47	1.62
x2 = 0.09556	0.721	0.929	1.17	1.43	1.69	1.95	2.2	2.48	2.72	2.98
x2 = 0.1412	1.01	1.3	1.64	2.01	2.38	2.75	3.11	3.5	3.86	4.23
x2 = 0.1978	1.14	1.5	1.9	2.35	2.8	3.27	3.75	4.24	4.69	5.16
x2 = 0.27	1.26	1.69	2.14	2.67	3.17	3.72	4.29	4.84	5.41	6.03
x2 = 0.3652	1.38	1.82	2.33	2.93	3.56	4.17	4.81	5.48	6.15	6.86
x2 = 0.4965	1.5	2.02	2.55	3.24	3.93	4.64	5.37	6.21	7	7.83
x2 = 0.6893	1.59	2.12	2.72	3.45	4.22	5.01	5.87	6.75	7.69	8.67
